The target of this experiment is T1, human RORγ-LBD (Homo sapiens, UniProt P51449).
T1 construct: made in house; host or cells: E. coli (BL-21)
T1 sequence (P51449 262-518): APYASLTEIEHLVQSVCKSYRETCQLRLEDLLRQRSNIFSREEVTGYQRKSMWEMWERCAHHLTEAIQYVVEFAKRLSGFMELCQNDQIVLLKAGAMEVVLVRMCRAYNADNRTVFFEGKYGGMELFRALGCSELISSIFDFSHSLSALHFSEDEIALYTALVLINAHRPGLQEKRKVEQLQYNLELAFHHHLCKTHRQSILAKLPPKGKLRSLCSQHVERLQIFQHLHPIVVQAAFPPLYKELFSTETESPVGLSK
Kind of experiment: ROR gamma coactivator peptide recruitment Alphascreen assay (RORγ-LBD binding to GRIP1 coactivator peptide). The settings on record: 5 nM human RORγ-LBD, 30 nM 7-β-hydroxycholesterol, 50 nM biotinylated GRIP1 coactivator peptide, overnight incubation at room temperature; read-out: result (pIC50, RORγ coactivator peptide recruitment Alphascreen assay) (converted). It is filed as biochemical. The procedure, abridged: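 His/Flag-tagged human RORγ-LBD (aa 262-518, E. coli-expressed, 5 nM) with agonist 7-β-hydroxycholesterol (30 nM) and biotinylated GRIP1 LXXLL peptide (50 nM) in HEPES pH 7.4 buffer, 2.5% DMSO. Compound 1-in-2 dilutions; Alphascreen bead signal read after overnight incubation at room temperature; pIC50 calculated.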

With `COC1(CN(CC(=O)c2c(Cl)cncc2Cl)C(=O)c2cnn([C@H]3CC[C@](C)(C(=O)O)CC3)c2C(F)(F)F)CCCCC1` [Example 645, trans-4-(4-((2-(3,5-dichloro-4-pyridinyl)-2-oxoethyl)((1-methoxycyclohexyl)methyl)carbamoyl)-5-(trifluoromethyl)-1H-pyrazol-1-yl)1-methylcyclohexanecarboxylic acid], the IC50 is 13.8 nM.

For the molecule `COC1(CN(CC(=O)c2c(Cl)cncc2Cl)C(=O)c2cnn([C@H]3CC[C@@H](C(=O)O)CC3)c2C(F)(F)F)CCCC1` [Example 646, cis-4-(4-((2-(3,5-dichloro-4-pyridinyl)-2-oxoethyl)((1-methoxycyclopentyl)methyl)carbamoyl)-5-(trifluoromethyl)-1H-pyrazol-1-yl)cyclohexanecarboxylic acid], the IC50 was 295 nM.

As to `CC1(C)C[C@H]1N(CC(=O)c1c(Cl)cncc1Cl)C(=O)c1cnn([C@H]2CC[C@](C)(C(=O)O)CC2)c1C(F)(F)F` [Example 648, trans-4-(4-((2-(3,5-dichloro-4-pyridinyl)-2-oxoethyl)((1R)-2,2-dimethylcyclopropyl)carbamoyl)-5-(trifluoromethyl)-1H-pyrazol-1-yl)-1-methylcyclohexanecarboxylic acid], the IC50 was 32.4 nM.

Turning to `C[C@]1(C(=O)O)CC[C@H](n2ncc(C(=O)N(CC(=O)c3c(Cl)cccc3Cl)[C@H]3CCC34CCCC4)c2C(F)(F)F)CC1` [Example 649, trans-4-(4-((2-(2,6-dichlorophenyl)-2-oxoethyl)((1S)-spiro[3.4]oct-1-yl)carbamoyl)-5-(trifluoromethyl)-1H-pyrazol-1-yl)-1-methylcyclohexanecarboxylic acid], the IC50 was 1.82 nM.

Regarding `C[C@]1(C(=O)O)CC[C@H](n2ncc(C(=O)N(CC(=O)c3c(Cl)cccc3Cl)[C@@H]3CCC34CCCC4)c2C(F)(F)F)CC1` [Example 650, trans-4-(4-((2-(2,6-dichlorophenyl)-2-oxoethyl)((1R)-spiro[3.4]oct-1-yl)carbamoyl)-5-(trifluoromethyl)-1H-pyrazol-1-yl)-1-methylcyclohexanecarboxylic acid], the IC50 was 7.94 nM.

Take `C[C@]1(C(=O)O)CC[C@H](n2ncc(C(=O)N(CC(=O)c3c(Cl)cccc3Cl)[C@@H]3CC34CCCC4)c2C(F)(F)F)CC1` [Example 652, trans-4-(4-((2-(2,6-dichlorophenyl)-2-oxoethyl)((1R)-spiro[2.4]hept-1-yl)carbamoyl)-5-(trifluoromethyl)-1H-pyrazol-1-yl)-1-methylcyclohexanecarboxylic acid]: the IC50 is 4.37 nM.

On to `C[C@]1(C(=O)O)CC[C@H](n2ncc(C(=O)N(CC(=O)c3c(Cl)cccc3Cl)[C@H]3CCOC4(CCC4)C3)c2C(F)(F)F)CC1` [Example 653, trans-4-(4-((2-(2,6-dichlorophenyl)-2-oxoethyl)((8S)-5-oxaspiro[3.5]non-8-yl)carbamoyl)-5-(trifluoromethyl)-1H-pyrazol-1-yl)-1-methylcyclohexanecarboxylic acid], for which the IC50 was 70.8 nM.

`C[C@]1(C(=O)O)CC[C@H](n2ncc(C(=O)N(CC(=O)c3c(Cl)cccc3Cl)[C@@H]3CCOC4(CCC4)C3)c2C(F)(F)F)CC1` [Example 654, trans-4-(4-((2-(2,6-dichlorophenyl)-2-oxoethyl)((8R)-5-oxaspiro[3.5]non-8-yl)carbamoyl)-5-(trifluoromethyl)-1H-pyrazol-1-yl)-1-methylcyclohexanecarboxylic acid]: the IC50 was 355 nM.

`CC1(C)CC[C@H](CN(CC(=O)c2c(Cl)cncc2Cl)C(=O)c2cnn([C@H]3CC[C@](C)(C(=O)O)CC3)c2C(F)(F)F)O1` [Example 655, trans-4-(4-((2-(3,5-dichloro-4-pyridinyl)-2-oxoethyl)(((2R)-5,5-dimethyltetrahydro-2-furanyl)methyl)carbamoyl)-5-(trifluoromethyl)-1H-pyrazol-1-yl)-1-methylcyclohexanecarboxylic acid]: the IC50 is 26.9 nM.

Take `CC1(C)C[C@@H]1N(CC(=O)c1c(Cl)cncc1Cl)C(=O)c1cnn([C@H]2CC[C@H](C(=O)O)CC2)c1C(F)(F)F` [Example 656, trans-4-(4-((2-(3,5-dichloro-4-pyridinyl)-2-oxoethyl)((1S)-2,2-dimethylcyclopropyl)carbamoyl)-5-(trifluoromethyl)-1H-pyrazol-1-yl)cyclohexanecarboxylic acid]: the IC50 is 186 nM.

In the case of `CCC(C)(C)CN(CC(=O)c1c(F)cccc1Cl)C(=O)c1cnn([C@H]2CC[C@](C)(C(=O)O)CC2)c1C(F)(F)F` [Example 657, trans-4-(4-((2-(2-chloro-6-fluorophenyl)-2-oxoethyl)(2,2-dimethylbutyl)carbamoyl)-5-(trifluoromethyl)-1H-pyrazol-1-yl)-1-methylcyclohexanecarboxylic acid], the IC50 is 2.24 nM.

`CC1(C)[C@@H]2C[C@H](N(CC(=O)c3c(F)cccc3Cl)C(=O)c3cnn([C@H]4CC[C@](C)(C(=O)O)CC4)c3C(F)(F)F)C[C@@H]21` [Example 658, trans-4-(4-((2-(2-chloro-6-fluorophenyl)-2-oxoethyl)((1R,3r,5S)-6,6-dimethylbicyclo[3.1.0]hex-3-yl)carbamoyl)-5-(trifluoromethyl)-1H-pyrazol-1-yl)-1-methylcyclohexanecarboxylic acid]: the IC50 is 1.95 nM.

On to `CC(C)(C)CN(CC(=O)c1c(Cl)cncc1Cl)C(=O)c1cnn([C@@H]2CCCC[C@H]2CC(=O)O)c1C(F)(F)F` [Example 659, ((1S,2R)-2-(4-((2-(3,5-dichloro-4-pyridinyl)-2-oxoethyl)(2,2-dimethylpropyl)carbamoyl)-5-(trifluoromethyl)-1H-pyrazol-1-yl)cyclohexyl)acetic acid], for which the IC50 is 331 nM.

Take `C[C@@]1(CN(CC(=O)c2c(Cl)cncc2Cl)C(=O)c2cnn([C@H]3CC[C@](C)(C(=O)O)CC3)c2C(F)(F)F)CCCO1` [Example 660, trans-4-(4-((2-(3,5-dichloro-4-pyridinyl)-2-oxoethyl)(((2S)-2-methyltetrahydro-2-furanyl)methyl)carbamoyl)-5-(trifluoromethyl)-1H-pyrazol-1-yl)-1-methylcyclohexanecarboxylic acid]: the IC50 is 25.7 nM.

Consider `C[C@]1(CN(CC(=O)c2c(Cl)cncc2Cl)C(=O)c2cnn([C@H]3CC[C@](C)(C(=O)O)CC3)c2C(F)(F)F)CCCO1` [Example 661, trans-4-(4-((2-(3,5-dichloro-4-pyridinyl)-2-oxoethyl)(((2R)-2-methyltetrahydro-2-furanyl)methyl)carbamoyl)-5-(trifluoromethyl)-1H-pyrazol-1-yl)-1-methylcyclohexanecarboxylic acid], for which the IC50 was 20.4 nM.

For `C[C@H]1C[C@H](n2ncc(C(=O)N(CC(=O)c3c(Cl)cccc3Cl)CC3CC(C)(C)C3)c2C(F)(F)F)CC[C@H]1C(=O)O` [Example 662, (1R,2S,4R)-4-(4-((2-(2,6-dichlorophenyl)-2-oxoethyl)((3,3-dimethylcyclobutyl)methyl)carbamoyl)-5-(trifluoromethyl)-1H-pyrazol-1-yl)-2-methylcyclohexanecarboxylic acid], the IC50 is 7.08 nM.

As for `C[C@@H]1C[C@@H](n2ncc(C(=O)N(CC(=O)c3c(Cl)cccc3Cl)CC3CC(C)(C)C3)c2C(F)(F)F)CC[C@@H]1C(=O)O` [Example 663, (1S,2R,4S)-4-(4-((2-(2,6-dichlorophenyl)-2-oxoethyl)((3,3-dimethylcyclobutyl)methyl)carbamoyl)-5-(trifluoromethyl)-1H-pyrazol-1-yl)-2-methylcyclohexanecarboxylic acid], the IC50 was 1.95 nM.

Turning to `C[C@]1(C(=O)O)CC[C@H](n2ncc(C(=O)N(CC(=O)c3c(Cl)cc(F)cc3Cl)CC3CCCCC3)c2C(F)(F)F)CC1` [Example 664, trans-4-(4-((cyclohexylmethyl)(2-(2,6-dichloro-4-fluorophenyl)-2-oxoethyl)carbamoyl)-5-(trifluoromethyl)-1H-pyrazol-1-yl)-1-methylcyclohexanecarboxylic acid], the IC50 was 1.45 nM.

Regarding `Cc1cc(Cl)c(C(=O)CN(CC2(F)CCCCC2)C(=O)c2cnn([C@H]3CC[C@](C)(C(=O)O)CC3)c2C(F)(F)F)c(Cl)c1` [Example 665, trans-4-(4-((2-(2,6-dichloro-4-methylphenyl)-2-oxoethyl)((1-fluorocyclohexyl)methyl)carbamoyl)-5-(trifluoromethyl)-1H-pyrazol-1-yl)-1-methylcyclohexanecarboxylic acid], the IC50 is 1.38 nM.

As to `C[C@]1(C(=O)O)CC[C@H](n2ncc(C(=O)N(CC(=O)c3c(Cl)cncc3Cl)CC3(F)CCCCC3)c2C(F)(F)F)CC1` [Example 666, trans-4-(4-((2-(3,5-dichloro-4-pyridinyl)-2-oxoethyl)((1-fluorocyclohexyl)methyl)carbamoyl)-5-(trifluoromethyl)-1H-pyrazol-1-yl)-1-methylcyclohexanecarboxylic acid], the IC50 is 4.57 nM.

Regarding `O=C(CN(CC1(F)CCCC1)C(=O)c1cnn([C@H]2CC[C@@H](C(=O)O)CC2)c1C(F)(F)F)c1c(Cl)cncc1Cl` [Example 667, cis-4-(4-((2-(3,5-dichloro-4-pyridinyl)-2-oxoethyl)((1-fluorocyclopentyl)methyl)carbamoyl)-5-(trifluoromethyl)-1H-pyrazol-1-yl)cyclohexanecarboxylic acid], the IC50 was 302 nM.

These data come from US9365522B2, “Pyrazole amide derivative” (AMGEN INC., priority 2015, dated 2016).
